Patent US8481489B2, “GH secretagogues and uses thereof” (Theratechnologies Inc., priority 2003, dated 2013)
Values joined by “and” are separate entries in the source; they are usually repeats but may differ in a detail not shown here. Equal entries are not always repeated. Where two headings read alike, the source gives them in different places. Marks after values point to notes of the source that are not given here.

How the values were obtained:
[1] = test system: HIV-infected patients with abdominal fat accumulation; experiment: Quality of life questionnaire (PLC), HIV lipodystrophy study; assay type: in vivo, human
Protocol: A health-related quality of life questionnaire (PLC, Quality of Life Profile for the Chronically Ill) was self-administered to 61 patients randomized to receive placebo or TH9507 at 1 or 2 mg s.c. daily. The PLC questionnaire included a general, non-specific part assessing 6 dimensions of global health as well as a disease specific part capturing impact of enlarged abdominal girth, abdominal bloating, tenseness and pain, as well as diarrhea, visible facial changes, visible changes in physical appearance, and the feeling of being recognized as an HIV positive person.
Study population included 54 men and 7 women. […] Slight changes were observed within the treated groups in the positive mood and social well-being scores but were not considered clinically significant.

[2] = test system: HIV-infected patients with abdominal fat accumulation; conditions: change from baseline, Week 12, mean (SD)
Protocol: (§1) Design: Randomized, placebo-controlled, multi-center, dose ranging (placebo, 1 mg or 2 mg SC QD), parallel group, 12-week study
At the baseline visit, anthropometric measurements were obtained. […] Biochemical parameters including insulin-like growth factor-I, glucose, insulin, lipid profile (cholesterol, HDL, LDL, triglyceride, non HDL and the ratio of cholesterol:HDL), free fatty acids, HbA1C, IGFBP-3, and bone markers (serum osteocalcin and NTX-1), CD4, viral load, and a pregnancy test for female subjects were determined in the fasting state. In addition, insulin and glucose response to a 75 gram standard glucose challenge were assessed and a quality of life questionnaire was administered.
Clinical laboratory testing was performed by a central lab. Serum IGF-1 was measured after acid-ethanol extraction using the Esoterix RIA kit (Esoterix Inc., Calabasas Hill, Calif.), with a sensitivity of 10 ng/mL. Intra- and inter-assay coefficients of variation were 4.6-20% and 9-10%, respectively. Serum IGFBP-3 was measured using the Esoterix RIA kit (Esoterix Inc., Calabasas Hill, Calif.) with a sensitivity of 0.3 mg/mL. Intra- and inter-assay coefficients of variation were 5.1-13% and 5.5-17%, respectively. HDL, LDL, total cholesterol, triglycerides and FFA were determined by enzymatic calorimetric assay. Glucose was measured by enzymatric test (Gluco-Quant®, Roche diagnostics, Indianapolis, Ind.). HbA1c was determined by chromatography.
Other endpoints included IGF-I, lipid parameters, glucose and insulin, CD4, viral load, bone markers, and quality of life. A sample size of 20 patients/group was planned to assess a statistically significant change of 10% or more in intra-group analyses. The planned dropout rate was 25% and therefore 60 patients were enrolled into the study. Baseline data are compared between the groups by F-test based on ANOVA for continuous variables and Chi-Square test for categorical variables. Change over time between groups is compared by ANOVA or the Chi-Square test. Where appropriate, data were rank transformed prior to analysis. Changes within each group are determined by t-test. The ITT (intent to treat) population is defined as all subjects who received at least one dose of the study treatment. Descriptive statistics and analyses for all efficacy and safety analyses are performed on the ITT population. End of study, 12 week, data are used to calculate changes in body composition. For biochemical indices, the last observation available is used to calculate change. Imputation for missing data is not performed. For body composition, end of study data are used to calculate change. Interim analyses were not performed. Results are mean (SD) unless otherwise noted. All statistical tests were performed with a two-sided Type I error level of 0.05.

[3] = test system: GH secretion; experiment: GH response and other pituitary hormones, 7-day study in healthy men; assay type: in vivo, human; conditions: dose dependent between 0.5 and 1 mg, similar at 1 and 2 mg
Protocol: The study used a randomized, double-blind, placebo-controlled design and was conducted in healthy men, aged 50 to 60 years old. Subjects (8 per group) were injected S.C. once a day for 7 consecutive days with placebo, 0.5, 1 or 2 mg of TH9507. Circulating IGF-1 levels were measured on Days 1 to 7. […]

[4] = Adverse events, discontinuation and safety laboratory, HIV lipodystrophy study
[5] = test system: HIV-infected patients with abdominal fat accumulation; experiment: Body composition by DEXA, HIV lipodystrophy study; conditions: for Fat Mass, Δ / Lean Body Mass, Δ / Limb Fat, Δ / Trunk Fat, Δ: change from baseline, Week 12, mean (SD)
Protocol: as §1
Patients: 61 HIV-infected patients (BMI 28±3 [SD] kg/m^2, 28% diabetic or glucose intolerant) with increased waist circumference (102 cm±8 [SD]) and waist/hip (1.0±0.1 [SD])
At the baseline visit, anthropometric measurements were obtained. Total body lean and fat mass as well as regional fat mass in the trunk and extremities were assessed by DEXA. Abdominal subcutaneous and visceral fat area and the ratio of VAT to SAT were determined by cross-sectional CT at L4-L5.
Whole body and regional DEXA (dual energy X-ray absorptiometry) and cross-sectional abdominal CT scans were performed at the individual study sites based on previously established protocols and were standardized across sites. Digitized images were sent to a central reading center, St. Lukes Roosevelt Hospital, for analysis by independent experts without knowledge of treatment assignment. Each site was given a procedure manual to follow in obtaining the body composition data and was certified in the proper technique. For the CT scans, parameters were standardized as follows: Tube Voltage=120 kV, Tube Current=250 mA, Exposure=375 mAs, matrix 512×512. DFOV was set to include the entire slice into the field of view. For the DEXA scans total body scans were performed with analysis of lean body mass, total fat mass, and regional fat mass in the trunk and extremities as previously described (16).
Body composition endpoints included trunk fat and trunk to limb fat ratio by DEXA and VAT and VAT:SAT by CT scan. […] Baseline data are compared between the groups by F-test based on ANOVA for continuous variables and Chi-Square test for categorical variables. Change over time between groups is compared by ANOVA or the Chi-Square test. Where appropriate, data were rank transformed prior to analysis. Changes within each group are determined by t-test. The ITT (intent to treat) population is defined as all subjects who received at least one dose of the study treatment. Descriptive statistics and analyses for all efficacy and safety analyses are performed on the ITT population. End of study, 12 week, data are used to calculate changes in body composition. […] Imputation for missing data is not performed. For body composition, end of study data are used to calculate change. […] Results are mean (SD) unless otherwise noted. All statistical tests were performed with a two-sided Type I error level of 0.05.

[6] = In vitro half-life; assay type: in vitro ADME
Description: The safety profile of TH9507 is generally good.

[7] = assay type: in vivo, human; conditions: 1 or 2 mg SC daily, 8 weeks
Protocol: Eighty seven (87) subjects aged 75 years in average were included in a double-bind, randomized, placebo-controlled study. TH9507 or a placebo was administered at a daily dose of 1 or 2 mg by subcutaneous injection for 8 weeks. Follow-up assessments were conducted for 12 weeks after the end of the treatment period. At week 4, in the middle of the treatment period, subjects received the commercial Canadian influenza vaccine (Vaccine Fluviral® S/F, Shire, Montreal, Canada) containing 15 μg each of A/New Caledonia/20/99, A/Panama/2007/99, B/Victoria/504/2000 antigens.

[8] = test system: IGF-1; experiment: Circulating IGF-1 levels, 7-day administration in healthy middle-aged men; assay type: in vivo, human; conditions: for IGF-1 increase over baseline values / IGF-1 levels reached: 7 days
Protocol: The study used a randomized, double-blind, placebo-controlled design and was conducted in healthy men, aged 50 to 60 years old. Subjects (8 per group) were injected S.C. once a day for 7 consecutive days with placebo, 0.5, 1 or 2 mg of TH9507. Circulating IGF-1 levels were measured on Days 1 to 7. The 12 hour GH response and TH9507 PK profile were determined on Day 1 and 7.

[9] = in vivo
[10] = test system: IGF-1 and IGFBP-3; experiment: Circulating IGF-1 and IGFBP-3 levels, insomnia study; assay type: in vivo, human; conditions: week 2

CC/C=C/CC(=O)N[C@@H](Cc1ccc(O)cc1)C(=O)N[C@@H](C)C(=O)N[C@@H](CC(=O)O)C(=O)N[C@@H](C)C(=O)N[C@H](C(=O)N[C@@H](Cc1ccccc1)C(=O)N[C@H](C(=O)N[C@@H](CC(N)=O)C(=O)N[C@@H](CO)C(=O)N[C@@H](Cc1ccc(O)cc1)C(=O)N[C@@H](CCCNC(=N)N)C(=O)N[C@@H](CCCCN)C(=O)N[C@H](C(=O)N[C@@H](CC(C)C)C(=O)NCC(=O)N[C@@H](CCC(N)=O)C(=O)N[C@@H](CC(C)C)C(=O)N[C@@H](CO)C(=O)N[C@@H](C)C(=O)N[C@@H](CCCNC(=N)N)C(=O)N[C@@H](CCCCN)C(=O)N[C@@H](CC(C)C)C(=O)N[C@@H](CC(C)C)C(=O)N[C@@H](CCC(N)=O)C(=O)N[C@@H](CC(=O)O)C(=O)N[C@H](C(=O)N[C@@H](CCSC)C(=O)N[C@@H](CO)C(=O)N[C@@H](CCCNC(=N)N)C(=O)N[C@@H](CCC(N)=O)C(=O)N[C@@H](CCC(N)=O)C(=O)NCC(=O)N[C@@H](CCC(=O)O)C(=O)N[C@@H](CO)C(=O)N[C@@H](CC(N)=O)C(=O)N[C@@H](CCC(N)=O)C(=O)N[C@@H](CCC(=O)O)C(=O)N[C@@H](CCCNC(=N)N)C(=O)NCC(=O)N[C@@H](C)C(=O)N[C@@H](CCCNC(=N)N)C(=O)N[C@@H](C)C(=O)N[C@@H](CCCNC(=N)N)C(=O)N[C@@H](CC(C)C)C(N)=O)[C@@H](C)CC)C(C)C)[C@@H](C)O)[C@@H](C)CC [TH9507, (hexenoyl trans-3)hGRF(1-44)NH2]
abdominal pain (PLC) ([1]; 1 mg only, P<0.05 vs baseline, NS vs placebo): Improvement | bloating score change (PLC) ([1]; 1 mg s.c. daily): −0.50 | enlarged abdominal girth score change (PLC) ([1]; 1 mg s.c. daily): −0.93 | tenseness (PLC) ([1]; 1 mg, P=0.07 vs baseline, NS vs placebo): trend for improvement | bloating score change (PLC) ([1]; 2 mg s.c. daily): −0.69 | enlarged abdominal girth score change (PLC) ([1]; 2 mg s.c. daily): −1.19 | subscales of the main portion of the PLC, between groups ([1]; 1 or 2 mg s.c. daily): No significant difference | Fasting Glucose, Δ ([2]; 1 mg SC QD): 0.1 (0.5) mmol/L | Fasting Insulin, Δ ([2]; 1 mg SC QD): −2.8 (27.6) mUI/L | HBA1c, Δ ([2]; 1 mg SC QD): 0.2 (0.4)* % | HOMA-R, Δ ([2]; 1 mg SC QD): 0.8 (7.0) | Two hour glucose, Δ ([2]; 1 mg SC QD): 0.1 (2.1) mmol/L | Fasting Glucose, Δ ([2]; 2 mg SC QD): 0.1 (0.7) mmol/L | Fasting Insulin, Δ ([2]; 2 mg SC QD): 7.4 (6.2) mUI/L | HBA1c, Δ ([2]; 2 mg SC QD): −0.0 (0.5) % | HOMA-R, Δ ([2]; 2 mg SC QD): 2.0 (1.6) | Two hour glucose, Δ ([2]; 2 mg SC QD): 0.7 (1.7) mmol/L | GH response [3]: increased rapidly | Musculoskeletal AE's e.g. pain and arthralgias, subjects ([4]; 1 mg): 26% | Musculoskeletal AE's e.g. pain and arthralgias, subjects ([4]; 2 mg): 29% | Trunk fat change ([5]; 1 mg SC QD, 12 weeks): −4.6% | Fat Mass, Δ ([5]; 1 mg SC QD): −0.4 (1.8) kg | Lean Body Mass, Δ ([5]; 1 mg SC QD): 0.7 (2.0) kg | Limb Fat, Δ ([5]; 1 mg SC QD): 0.1 (0.5) kg | Trunk Fat, Δ ([5]; 1 mg SC QD): −0.5 (1.4) kg | Trunk fat change ([5]; 2 mg SC QD, 12 weeks): −9.2% | Fat Mass, Δ ([5]; 2 mg SC QD): −1.4 (2.0) kg and −1.4 (2.0)* kg | Lean Body Mass, Δ ([5]; 2 mg SC QD): 1.7 (2.3) kg and 1.7 (2.3)* kg | Limb Fat, Δ ([5]; 2 mg SC QD): −0.3 (0.8) kg | Trunk Fat, Δ ([5]; 2 mg SC QD): −1.1 (1.3)* kg | limb fat ([5]; 1 and 2 mg SC QD, 12 weeks): no significant change | half-life [6]: 3 to 8 h | incidence of adverse events between treatment groups [7]: No major difference | incidence of reactions at the site of injection [7]: dose-related trend | IGF-1 increase over baseline values ([8]; 0.5 mg SC once a day): 37% | time at which IGF-1 plateau was reached ([8]; 1 mg): 4 days | IGF-1 increase over baseline values ([8]; 1 mg SC once a day): 89% | IGF-1 levels reached ([8]; 1 mg SC once a day): 286 ± 25 ng/mL | time at which IGF-1 plateau was reached ([8]; 2 mg): 6 days | IGF-1 increase over baseline values ([8]; 2 mg SC once a day): 106% | IGF-1 levels reached ([8]; 2 mg SC once a day): 284 ± 55 ng/mL | IGF-1 levels of individual subjects ([8]; none of the subjects greater than this level): ≤ 400 ng/mL | Anti-TH9507 antibodies [9]: not detected | Blood pressure and heart rate [9]: did not change | Safety laboratory values, including hemoglobin, WBC, LFT's, creatinine [9]: did not differ | Circulating IGF-1 level vs placebo ([10]; 0.1 mg): did not affect | Circulating IGFBP-3 level vs placebo ([10]; 0.1 mg): did not affect | Circulating IGF-1 level vs placebo ([10]; 1 mg): significantly increased | Circulating IGFBP-3 level vs placebo ([10]; 1 mg): significantly increased
